Experimental data published in patent US12466840B2, “Small molecule inhibitors of KRAS proteins” (Merck Sharp & Dohme LLC, priority 2023, dated 2025).
Like-named read-outs stand apart in the source and are kept apart here. Values belong to the compound of their own block, whether it stands above or below them.

Columns and labels:
[1] = system: AsPC-1 cells (homozygous KRAS-G12D); assay: Cellular phospho-ERK assay, AsPC-1 cells; format: cell-based; details: p-ERK vs. total ERK, read-out: AsPC1 pERK IC50
Experimental: Procedure for Cellular Phospho-ERK Assay in KRAS Wild Type and Mutant (G12D, G12V) Cell Lines
MKN-1 cells (JCRB JCRB0252) containing amplified wild-type KRAS, were cultured in growth medium that contains RPMI 1640-GlutaMAX™-I (ThermoFisher Scientific 61870) containing 10% heat inactivated fetal bovine serum (ThermoFisher Scientific 10091148), 1 mM sodium pyruvate and 10 mM HEPES. AsPC-1 cells (ATCC® CRL-1682™), containing homozygous KRAS-G12D activating mutation, were cultured in T150 flask in growth medium (RPMI medium 1640-GlutaMAX™-I (ThermoFisher Scientific 61870) containing 10% fetal bovine serum (ThermoFisher Scientific 10091148)). SW620 cells (ATCC® CRL-227™) containing homozygous KRAS-G12V activating mutation, were cultured in growth medium that contains RPMI 1640-GlutaMAX™-I (ThermoFisher Scientific 61870) containing 10% heat inactivated fetal bovine serum (ThermoFisher Scientific 10091148).
Cells for the assay were harvested in growth medium after TrypLE (ThermoFisher scientific 12604021) digestion and were seeded in a 384-well collagen coated cell culture plate (Corning 356702) at a density of 10,000-15,000 cells/[…]/well, and incubated at 37° C., 5% CO2 overnight. The compound (with 10 mM stock concentration) dose-response titrations were prepared [30 μM final ERK detection assay concentration and 1:3 dilutions, 10-point dose response] and appropriate amounts (270 nL) of test compounds were dispensed in a 384-well intermediate plate using an Echo 550 liquid handler. 30 μL/well of RPMI medium 1640-GlutaMAX™-I was added to the intermediate plate and the contents of the intermediate plate (10 μL/well) were then transferred to the 384-well collagen coated cell culture plate, which was incubated at 37° C., 5% CO2 for 2 h. After removal of medium from the collagen coated cell culture plate, cells were lysed in lysis buffer from Alpha SureFire® Ultra™ Multiplex p-ERK and total ERK assay kit (PerkinElmer MPSU-PTERK) containing Halt™ Protease and Phosphatase inhibitor cocktail (ThermoFisher Scientific 78446) at room temperature with constant shaking at 300 rpm for 30 minutes. The cell lysates were then transferred to an OptiPlate-384 plate (PerkinElmer 6005620), and the phosphorylation of ERK (p-ERK) and total ERK levels were detected by Alpha SureFire® Ultra™ Multiplex p-EEK kit and total ERK assay kit (PerkinElmer MPSU-PTERK) following the manufacturer's protocol. Assay plates were read on a EnVision Multimode Plate Reader (PerkinElmer), and the ratio of p-ERK vs. total ERK in each well was used as the final readout. Dose response curves were analyzed using a 4-parameter logistic model to calculate IC50 values using Spotfire software.

[2] = Rat IV/PO pharmacokinetic studies; format: in vivo; details: for clearance / MRT / Vd / bioavailability / CLp: plasma; for clearance / MRT / Vd / CLp: IV 1 mg/kg; for clearance: read-out: CLp; for bioavailability / F %: oral bioavailability, PO 2 mg/kg vs. IV 1 mg/kg
Experimental: Procedure for Rat IV/PO Pharmacokinetic Studies
Plasma pharmacokinetic parameters for clearance, volume of distribution, half-life and oral bioavailability were determined in rats from oral administration and IV administration studies. 4 male rats, typically weighing 225-260 g, were fasted overnight prior to dosing. IV formulation was administered to 2 rats via pre-cannulated jugular vein, and oral dosing was administered to 2 rats via oral gavage. Blood was collected by pre-cannulated artery, typically at predose, 2, 8, 15, 30 min, 1, 2, 4, 6, and 8 hr postdose for IV, and at predose, 15, 30 min, 1, 2, 4, 6, 8 h for oral dosing. Samples were collected in K2EDTA tubes, stored on ice, and centrifuged. Plasma was transferred to a micro titer plate and stored at −70° C. until analysis. Plasma samples were extracted using protein precipitation and analyzed by liquid chromatography separation followed by mass spec detection (LC-MS/MS), using a standard curve for each compound. Plasma pharmacokinetic parameters were calculated for IV and oral dosing data by non-compartmental methods. Oral bioavailability was determined as the ratio of the dose-normalized plasma area under the curve (AUC) following oral dosing vs. IV dosing.

[3] = Dog IV/PO pharmacokinetic studies; format: in vivo; details: for clearance / MRT / Vd / bioavailability / CLp: plasma; for clearance / MRT / Vd / CLp: IV 0.25 mg/kg (Ex-2 0.05 mg/kg); for clearance: read-out: CLp; for bioavailability / F %: oral bioavailability, PO 0.5 mg/kg vs. IV
Experimental: Procedure for Dog IV/PO Pharmacokinetic Studies
Plasma pharmacokinetic parameters for clearance, volume of distribution, half-life, mean residence time (MRT) and oral bioavailability were determined in dogs from oral administration and IV administration studies. 4 male dogs, typically weighing 8-12 kg, were fasted overnight prior to dosing. IV formulation was administered to 2 dogs via the saphenous or cephalic vein, and oral dosing was administered to 2 dogs via oral gavage. Blood was collected by the cephalic or jugular vein, typically at predose, 2, 8, 15, 30 min, 1, 2, 4, 6, 8 and 24 h postdose for IV, and at predose, 15, 30 min, 1, 2, 4, 6, 8, and 24 hr for oral dosing. Samples were collected in K2EDTA tubes, stored on ice, and centrifuged. Plasma was transferred to a micro titer plate and stored at −70° C. until analysis. Plasma samples were extracted using protein precipitation and analyzed by liquid chromatography separation followed by mass spec detection (LC-MS/MS), using a standard curve for each compound. Plasma pharmacokinetic parameters were calculated for IV and oral dosing data by non-compartmental methods. Oral bioavailability was determined as the ratio of the dose-normalized plasma area under the curve (AUC) following oral dosing vs. IV dosing.

[4] = Dog IV cassette pharmacokinetic studies; format: in vivo; details: plasma, IV cassette 0.05 mg/kg
Experimental: Procedure for Dog IV Cassette Pharmacokinetic Studies
Plasma pharmacokinetic parameters for clearance, volume of distribution, half-life, and mean residence time (MRT) were determined in dogs from IV cassette administration studies. 2 male dogs, typically weighing 8-12 kg, were fasted overnight prior to dosing. IV formulation was administered to 2 dogs via the saphenous or cephalic vein. Blood was collected by the cephalic or jugular vein, typically at predose, 2, 8, 15, 30 min, 1, 2, 4, 6, 8 and 24 h postdose. Samples were collected in K2EDTA tubes, stored on ice, and centrifuged. Plasma was transferred to a micro titer plate and stored at −70° C. until analysis. Plasma samples were extracted using protein precipitation and analyzed by liquid chromatography separation followed by mass spec detection (LC-MS/MS), using a standard curve for each compound. Plasma pharmacokinetic parameters were calculated by non-compartmental methods.

Compound: Fc1c(-c2c(C3CC3)c(Cl)cc3[nH]ncc23)nc2c3c(nc(OC[C@@]45CCCN4C[C@H](F)C5)nc13)N1CCCOC[C@H]1CO2 [Ex-3, (8aS)-5-(6-chloro-5-cyclopropyl-1H-indazol-4-yl)-4-fluoro-2-(((2R,7aS)-2-fluorotetrahydro-1H-pyrrolizin-7a(5H)-yl)methoxy)-8a,9,12,13-tetrahydro-8H,11H-7,10-dioxa-1,3,6,13a-tetraazanaphtho[1,8-ab]heptalene]
IC50 ([1]; Homo sapiens, ASPC1, 2 h): 15 nM | clearance ([2]; male): 40 mL/min/kg | MRT ([2]; male, read-out: MRT): 1.7 h | Vd ([2]; male, read-out: Vd): 4 L/kg | bioavailability ([2]; male): 7.5% | clearance ([3]; male): 10 mL/min/kg | MRT ([3]; male, read-out: MRT): 3.6 h | Vd ([3]; male, read-out: Vd): 2.2 L/kg | bioavailability ([3]; male): 15%

Compound: F/C=C1\CN2CCC[C@@]2(COc2nc3c4c(nc(-c5c(C6(F)CC6)c(Cl)cc6[nH]ncc56)c(F)c4n2)OC[C@@H]2COCCCN32)C1 [Ex-5, (8aS)-5-(6-chloro-5-(1-fluorocyclopropyl)-1H-indazol-4-yl)-4-fluoro-2-(((S,Z)-2-(fluoromethylene)tetrahydro-1H-pyrrolizin-7a(5H)-yl)methoxy)-8a,9,12,13-tetrahydro-8H,11H-7,10-dioxa-1,3,6,13a-tetraazanaphtho[1,8-ab]heptalene]
IC50 ([1]; Homo sapiens, ASPC1, 2 h): 3.2 nM

Compound: CCc1c(F)ccc2cc3[nH]nc(C)c3c(-c3nc4c5c(nc(OC[C@@]67CCCN6C/C(=C\F)C7)nc5c3F)N3CCCOC[C@H]3CO4)c12 [Ex-7, (8aS)-5-(5-ethyl-6-fluoro-3-methyl-1H-benzo[f]indazol-4-yl)-4-fluoro-2-(((S,Z)-2-(fluoromethylene)tetrahydro-1H-pyrrolizin-7a(5H)-yl)methoxy)-8a,9,12,13-tetrahydro-8H,11H-7,10-dioxa-1,3,6,13a-tetraazanaphtho[1,8-ab]heptalene]
IC50 ([1]; 2 h): 7.1 nM | CLp [4]: 7.7 mL/min/kg | MRT [4]: 3.1 h | Vd [4]: 1.4 L/kg | F % [2]: 15% | CLp [2]: 35 mL/min/kg | MRT [2]: 1.9 h | Vd [2]: 4.0 L/kg

Compound: F/C=C1/CN2CCC[C@@]2(COc2nc3c4c(nc(-c5c(C6CC6)c(Cl)cc6[nH]ncc56)c(F)c4n2)OC[C@@H]2COCCCN32)C1 [Ex-1, (8aS)-5-(6-chloro-5-cyclopropyl-1H-indazol-4-yl)-4-fluoro-2-(((S,Z)-2-(fluoromethylene)tetrahydro-1H-pyrrolizin-7a(5H)-yl)methoxy)-8a,9,12,13-tetrahydro-8H,11H-7,10-dioxa-1,3,6,13a-tetraazanaphtho[1,8-ab]heptalene]
IC50 ([1]; 2 h): 5.1 nM | F % [2]: 11% | CLp [2]: 24 mL/min/kg | MRT [2]: 1.4 h | Vd [2]: 2.0 L/kg | F % [3]: 17% | CLp [3]: 5.0 mL/min/kg | MRT [3]: 2.2 h | Vd [3]: 0.65 L/kg

Compound: CCc1c(F)ccc2cc3[nH]ncc3c(-c3nc4c5c(nc(OC[C@@]67CCCN6C[C@H](F)C7)nc5c3F)N3CCCOC[C@H]3CO4)c12 [Ex-2, (8aS)-5-(5-ethyl-6-fluoro-1H-benzo[f]indazol-4-yl)-4-fluoro-2-(((2R,7aS)-2-fluorotetrahydro-1H-pyrrolizin-7a(5H)-yl)methoxy)-8a,9,12,13-tetrahydro-8H,11H-7,10-dioxa-1,3,6,13a-tetraazanaphtho[1,8-ab]heptalene]
IC50 ([1]; 2 h): 7.4 nM | F % [2]: 10% | CLp [2]: 40 mL/min/kg | MRT [2]: 2.5 h | Vd [2]: 6.1 L/kg | F % [3]: 29% | CLp [3]: 18 mL/min/kg | MRT [3]: 2.4 h | Vd [3]: 2.6 L/kg

Results, then the compound that gave them:

IC50 ([1]; Homo sapiens, ASPC1, 2 h): 9.5 nM | clearance ([2]; male): 36 mL/min/kg | MRT ([2]; male, read-out: MRT): 2.4 h | Vd ([2]; male, read-out: Vd): 5.1 L/kg | bioavailability ([2]; male): 18% | clearance ([3]; male): 8 mL/min/kg | MRT ([3]; male, read-out: MRT): 7.8 h | Vd ([3]; male, read-out: Vd): 3.7 L/kg | bioavailability ([3]; male): 59%
Compound: CCc1c(F)ccc2cc3[nH]nc(C)c3c(-c3nc4c5c(nc(OC[C@@]67CCCN6C[C@H](F)C7)nc5c3F)N3CCCOC[C@H]3CO4)c12 [Ex-6, (8aS)-5-(5-ethyl-6-fluoro-3-methyl-1H-benzo[f]indazol-4-yl)-4-fluoro-2-(((2R,7aS)-2-fluorotetrahydro-1H-pyrrolizin-7a(5H)-yl)methoxy)-8a,9,12,13-tetrahydro-8H,11H-7,10-dioxa-1,3,6,13a-tetraazanaphtho[1,8-ab]heptalene]

IC50 ([1]; Homo sapiens, ASPC1, 2 h): 2.2 nM
Compound: CCc1c(F)ccc2cc3[nH]ncc3c(-c3nc4c5c(nc(OC[C@@]67CCCN6C/C(=C\F)C7)nc5c3F)N3CCCOC[C@H]3CO4)c12 [Ex-4, (8aS)-5-(5-ethyl-6-fluoro-1H-benzo[f]indazol-4-yl)-4-fluoro-2-(((S,Z)-2-(fluoromethylene)tetrahydro-1H-pyrrolizin-7a(5H)-yl)methoxy)-8a,9,12,13-tetrahydro-8H,11H-7,10-dioxa-1,3,6,13a-tetraazanaphtho[1,8-ab]heptalene]
